# Several values for one entry are separate records, joined by “and”; a condition that tells them apart may be missing. Equal values may be shown once.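 Following 48 hours of exposure in 96-well plates, responses at five concentrations were used to interpolate endpoints linearly. The concentration for 50% growth inhibition is given as GI50. Definition used: TGI = concentration required for complete inhibition of growth.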
# Columns and labels:
# Assay in all cases: inhibition of tumour cell growth, NCI panel, 48 h
# UO-31 renal = test system: UO-31 renal
# SW-620 colon = test system: SW-620 colon
# IGROV1 ovarian = test system: IGROV1 ovarian
# MOLT-4 leukemia = test system: MOLT-4 leukemia
# RPMI-8226 leukemia = test system: RPMI-8226 leukemia
# LOX IMVI melanoma = test system: LOX IMVI melanoma
# HOP-62 NSCLC = test system: HOP-62 NSCLC
# HOP-92 NSCLC = test system: HOP-92 NSCLC
# OVCAR-3 ovarian = test system: OVCAR-3 ovarian
# PC-3 prostate = test system: PC-3 prostate
Compound,TGI (UO-31 renal),TGI (SW-620 colon),TGI (IGROV1 ovarian),TGI (MOLT-4 leukemia),TGI (RPMI-8226 leukemia),TGI (LOX IMVI melanoma),TGI (HOP-62 NSCLC),TGI (HOP-92 NSCLC),TGI (OVCAR-3 ovarian),GI50 (UO-31 renal),GI50 (SW-620 colon),GI50 (IGROV1 ovarian),GI50 (MOLT-4 leukemia),GI50 (RPMI-8226 leukemia),GI50 (LOX IMVI melanoma),GI50 (HOP-62 NSCLC),GI50 (HOP-92 NSCLC),GI50 (OVCAR-3 ovarian),GI50 (PC-3 prostate),TGI (PC-3 prostate)
COc1ccc(C=O)c(N(C)C(=O)C(C)(C)C)c1,> 100 µM,> 100 µM,> 100 µM,> 100 µM,> 100 µM,> 100 µM,> 100 µM,> 100 µM,> 100 µM,,,,,,,,,,,
Cc1cc2c(C)nn(Cc3ccc(Cl)cc3Cl)c2c(C#N)c1C,> 100 µM,> 100 µM,> 100 µM,> 100 µM,> 100 µM,> 100 µM,> 100 µM,92.6 µM,> 100 µM,,,,,,,,,,,
COC(=O)C12C3C=CC(O3)C1C1C=CC2O1 (stereo unspecified),> 100 µM,> 100 µM,> 100 µM,> 100 µM,> 100 µM,,,> 100 µM,> 100 µM,,,,,,,,,,,
CC(=O)OCC1OC(n2cnc3c(I)nc(I)nc32)C(OC(C)=O)C1OC(C)=O (stereo unspecified),31.5 µM,28.4 µM,19.8 µM,24.8 µM,31.1 µM,29.4 µM,34.4 µM,9.16 µM,20.1 µM,,,,,,,,,,,
CCCCCNC(=O)C1C(=O)N(CCCCC)C(=O)/C1=N\N (stereo unspecified),81.8 µM,> 100 µM,> 100 µM,> 100 µM,,,> 100 µM,95.4 µM,> 100 µM,,,,,,,,,,,
O=C(NCCS(=O)(=O)N1C(=O)C2CCCN2C(=O)[C@@H]1Cc1ccccc1)OCc1ccccc1 (stereo partly specified),> 100 µM,> 100 µM,> 100 µM,> 100 µM,64.4 µM,> 100 µM,> 100 µM,> 100 µM,70.2 µM,,,,,,,,,,,
CCN1N=CSC12C(=O)N(c1ccccc1)C(=O)N2c1ccccc1 (stereo unspecified),> 100 µM,> 100 µM,> 100 µM,> 100 µM,,> 100 µM,> 100 µM,> 100 µM,> 100 µM,,,,,,,,,,,
COc1ccc(Nc2nc3c(N)cc(C(F)(F)F)cc3nc2-c2ccccc2)cc1,> 100 µM,> 100 µM,> 100 µM,> 100 µM,,> 100 µM,> 100 µM,> 100 µM,> 100 µM,,,,,,,,,,,
C[CH2][Sn]([CH2]C)([O]C(=O)c1cc(OC)c(OC)c(OC)c1)[O][Sn]([CH2]C)([CH2]C)[O]C(=O)c1cc(OC)c(OC)c(OC)c1,> 100 µM,34.9 µM,> 100 µM,> 85.8 µM,> 100 µM,33.2 µM,> 100 µM,36.9 µM,> 100 µM,> 100 µM,19.1 µM,> 100 µM,25.8 µM,28.7 µM,18.5 µM,> 100 µM,19.6 µM,> 64.4 µM,,
O=C1/C(=C/c2ccccc2Cl)COc2ccccc21,28.3 µM,20.8 µM,35.6 µM,68.1 µM,22 µM,35.8 µM,35 µM,29.4 µM,34.8 µM,,,,,,,,,,,
Cn1cccc1C1CC(=O)N(CCC[Se]C#N)C1=O (stereo unspecified),3.29 µM,11.8 µM,4.68 µM,7.43 µM,5.04 µM,4.28 µM,3.77 µM,,3.99 µM,1.57 µM,3.26 µM,1.86 µM,2.16 µM,2.2 µM,1.88 µM,1.88 µM,,1.92 µM,2.19 µM,5.63 µM
Cn1c(=O)c2c(nc3n2C(CCl)CO3)n(C)c1=O (stereo unspecified),> 100 µM,> 100 µM,> 100 µM,> 100 µM,> 100 µM,,> 100 µM,> 100 µM,> 100 µM,,,,,,,,,,,
COc1ccc(Br)c(CCCCC(=O)O)c1,,> 100 µM,> 100 µM,> 100 µM,> 100 µM,> 100 µM,> 100 µM,76.3 µM,> 100 µM,,,,,,,,,,,
CNS(=O)(=O)NN(C)S(=O)(=O)c1ccc(C)cc1,> 100 µM,> 100 µM,> 100 µM,> 100 µM,> 100 µM,,> 100 µM,> 100 µM,> 100 µM,,,,,,,,,,,
COc1cc(-c2[nH]ncc2CCCC(=O)Nc2ccccc2[N+](=O)[O-])ccc1O,> 100 µM,> 100 µM,> 100 µM,> 100 µM,> 100 µM,> 100 µM,> 100 µM,> 100 µM,,,,,,,,,,,,
CCN=C(N)CSS(=O)(=O)O,,> 100 µM,> 100 µM,> 100 µM,> 100 µM,> 100 µM,> 100 µM,> 100 µM,> 100 µM,,,,,,,,,,,> 100 µM
CN(C)CC1CCCC(CN(C)C)C1=O (stereo unspecified),,0.639 µM and 1.92 µM,37.2 µM and 38.4 µM,1.14 µM and 2.08 µM,1.53 µM and 2.36 µM,7.09 µM and 30.3 µM,> 90.6 µM and 43 µM,2.26 µM,5.47 µM and 3.64 µM,,0.367 µM,,0.293 µM,0.125 µM and 0.458 µM,3.4 µM and 8.45 µM,> 73.1 µM and 20.8 µM,,,18.7 µM and 4.98 µM,33.4 µM and 16.9 µM
CCOc1ccc(NC(=O)/C(=C/c2ccccc2)C(C)=O)cc1,21.6 µM,33.2 µM,29.1 µM,19.5 µM,10.6 µM,25.2 µM,30.3 µM,28 µM,25.3 µM,,,,,,,,,,,
C#CCSc1nnnn1-c1ccc(Br)c(C)c1,,52.1 µM,9.16 µM,> 100 µM,74 µM,> 100 µM,> 100 µM,74.5 µM,95.8 µM,,19.1 µM,2.77 µM,23.3 µM,22.5 µM,20.9 µM,64.3 µM,14.5 µM,23.2 µM,34.7 µM,> 100 µM
COc1ccc(C(=O)Nc2ccccc2)cc1[N+](=O)[O-],> 100 µM,> 100 µM,> 100 µM,> 100 µM,> 100 µM,> 100 µM,> 100 µM,,> 100 µM,,,,,,,,,,,
COc1ccccc1NS(=O)(=O)c1cc(C(C)(C)C)ccc1OCCOc1ccc(C(C)(C)C)cc1S(=O)(=O)Nc1ccccc1OC,> 100 µM,> 100 µM,> 100 µM,> 100 µM,> 100 µM,> 100 µM,> 100 µM,> 100 µM,> 100 µM,,,,,,,,,,,

# Source: PubChem BioAssay (NCI)
